The values below come from US6452005B1, “JAK-3 inhibitors for treating allergic disorders” (Parker Hughes Institute, priority 1999, dated 2002).

For experiment [1], the system named is RBL-2H3 mast cells. Put plainly: IgE/antigen-induced activation (cell spreading, microtubule organization) by confocal microscopy. The conditions noted are these: 30 μM, two hour incubation. In kind it is cell-based, rat. On the procedure: RBL-2H3 cells were cultured overnight on 22×22 mm coverslips at a cell density of 0.01×10^6/ml with […] DNP-IgE. Sensitized RBL-2H3 cells were then treated with 30 μM WHI-P131, vehicle, or control compounds WHI-P258 and WHI-P112 prior to challenge with DNP-BSA, as described in the legend of FIG. 4. After stimulation with DNP-BSA for 1 hour, cells were fixed in cold methanol for 15 minutes followed by permeabilization with PBS containing 0.1% Triton X-100. […] After washing 3 times with PBS-0.1% Triton X-100, cells were incubated with fluorescein labeled secondary antibody (Zymed, San Francisco, Calif.) for another 40 minutes. Cells were washed three times to remove unbound antibody. DNA labeling was performed by incubation of coverslips with toto-3 (Molecular Probes, Eugene, Oreg.) for 10 minutes. Excessive dye was washed with PBS-0.1% Triton X-100. Cells were visualized under MRC 1024 Laser Scanning Microscope after mounting with Vectashield (Vector laboratories, Inc, Burlingame, Calif.), as previously reported.
Confocol Microscopy: Staining of mast cells with primary and secondary antibodies followed by confocal laser scanning microscopy was performed as previously described in detail (Uckun et. al., 1998, Clin. Cancer Res., 4:901-912). After staining with appropriate primary and secondary antibodies, cells were washed three times to remove unbound antibody. DNA labeling was performed by incubation of coverslips with toto-3 (Molecular Probes, Eugene, Oreg.) for 10 min. Excessive dye was washed with PBS-0.1% triton X-100. Cells were visualized under MRC 1024 Laser Scanning Microscope after mounting with Vectashield (Vector laboratories, Inc, Burlingame, Calif.).
In a systematic effort aimed at elucidating the biologic consequences of JAK3 inhibition in mast cells, we first sought to determine if the JAK3 inhibitor WHI-P131 could prevent the IgE receptor/FcεRI-mediated activation of mast cells. Since the IgE receptor/FcεRI-mediated activation of mast cells results in a distinct morphologic transformation with marked cell spreading due to membrane ruffling, microtubule formation and actin polymerization (Apgar, 1997), we evaluated the effects of WHI-P131 on the activation-associated transformation of shape and surface topography of RBL-2H3 mast cells using confocal laser scanning microscopy (Ghosh et. al., 1998).

Experiment [2] deals with RBL-2H3 mast cells. Put plainly: IgE/antigen-induced degranulation and mediator release. In kind it is cell-based, rat. The settings on record: 1 h preincubation, DNP-BSA challenge; at ≧30 μM. The source says:
Vehicle treated control RBL-2H3 cells released 45.1±3.1% of their hexosaminidase contents after DNP-BSA challenge. […] Vehicle treated control cells released 11.3±1.3 pg LTC4, and 160±33.0 pg TNFα/10^6 mast cells. The results on LTC4 and TNFα release are expressed as percent of maximum control release from vehicle treated control mast cells. The data points represent the mean±SEM values obtained from 3-6 independent experiments. […] *P<0.05 and **P<0.0001 compared to control as determined by Student's t test.
Supernatants were removed and saved.

A further experiment deals with BALB/c mice. The experiment can be described thus: Passive cutaneous anaphylaxis model. In kind it is in vivo. The settings on record: 25 mg/kg i.p. dose level. The method, then: FIG. 14A is a graph showing the effects of WHI-P131 on anaphylaxis-associated vascular hyperpermeability, examined by evaluating the cutaneous extravasation of albumin-bound Evans blue dye in mice (n=12). The plasma exudation indices were determined for vehicle treated as well as WHI-P131 treated mice, as described in the Examples. To study the effect of WHI-P131 on anaphylaxis, IgE sensitized mice were injected with two consecutive doses of 10 or 25 mg/kg WHI-P131 at 90 minutes before and 30 minutes before the antigen challenge, respectively. Mice were then challenged with 100 μg DNP-BSA in 2% Evans blue dye and the plasma exudation indices were determined. […] The data are expressed as plasma exudation index (times increase in optical density over PBS treated ears. The mean OD (at 620 nm) of vehicle treated ears was 0.22±0.04 before and 0.918±0.05 after the IgE/antigen challenge. *p<0.05 compared to vehicle treated controls.
After 20 hours, mice were treated with WHI-P131 (10 or 25 mg/kg i.p.) twice at 1 hour intervals prior to the antigen challenge. […] For quantitation of Evans blue dye extravasation as a measure of anaphylaxis-associated vascular hyperpermeability, 8 mm skin specimens were removed from the ears of mice, minced in 2 ml formamide and incubated at 80° C. for 2 hours in water bath to extract the dye. The absorbance was read at 620 nm. […]

The next experiment deals with SYK. The experiment can be described thus: SYK activation in RBL-2H3 mast cells after IgE receptor crosslinking. The conditions noted are these: 30 μM.
A further experiment concerns JAK3. The experiment can be described thus: JAK3 activation in RBL-2H3 mast cells after IgE receptor crosslinking. The settings on record: 30 μM.

Procedure for JAK3: (§1) Cells were lysed at the indicated time points, and SYK immune complexes were subjected to kinase assays in the presence of cold ATP followed by APT immunoblotting (upper panels in 8C & 8D) as well as to SYK Western blot analysis (lower panels in 8C & 8D).
(§2) Immune-Complex Kinase Assays and Western Blot Analyses of Mast Cell Lysates. […] Cells were harvested, lysed (10 mM Tris pH 7.6, 100 mM NaCl, 1% Nonidet P-40, 10% glycerol, 50 mM NaF, 100 mM Na3VO4, 50 mg/ml phenylmethylsulfonyl fluoride, 10 mg/ml aprotonin, 10 mg/ml leupeptin), and the kinases were immunoprecipitated from the lysates, as reported (Uckun et. al., 1995, Science, 267:886-891; Uckun et. al., 1996, Science, 273:1096-1100). […] Immunoprecipitations, and immunoblotting using the ECL chemiluminescence detection system (Amersham Life Sciences) were conducted as described previously (Uckun et. al., 1996, Science, 273:1096-1100).
Procedure for SYK: as §1, §2

With `COc1cc2ncnc(Nc3ccc(O)cc3)c2cc1OC` [WHI-P131, 4-(4′-Hydroxylphenyl)-amino-6,7-dimethoxyquinazoline], in the experiment with RBL-2H3 mast cells [1], the “IgE/antigen-induced mast cell activation (spreading and microtubule organization)” value is recorded as “prevented”; the “cells spindle shaped after IgE/antigen” value turned out to be 58%. Moreover, in the experiment on RBL-2H3 mast cells [1] (93% without drug), the “cells flattened after IgE/antigen” value came to 23%. For the same molecule, in the experiment with RBL-2H3 mast cells [2], the LTC4 release entry is given as “near to complete inhibition”, the TNFα release result is “near to complete inhibition” and the “β-hexosaminidase release (degranulation)” value was “near to complete inhibition”. For the same molecule, the “inhibition of IgE/antigen induced plasma exudation (Evans blue extravasation)” value with BALB/c mice was 70%. For the same molecule, the “SYK activation after IgE receptor/FcεRI crosslinking” value in the experiment with SYK is “did not prevent”. The “JAK3 activation after IgE receptor crosslinking” value in the experiment on JAK3 is “abrogated”.
